Marks after values point to notes of the source that are not given here.
Legend:
[1] = test system: patients with stable HFrEF; assay: HFrEF study Part 1 (SAD Cohorts 1 and 2): TTE pharmacodynamics by plasma concentration group; type: in vivo, human; settings: for A wave peak change from baseline, placebo-corrected (LS mean difference) / E wave peak change from baseline, placebo-corrected (LS mean difference) / E/A ratio change from baseline, placebo-corrected (LS mean difference) / E/e′ lateral change from baseline, placebo-corrected (LS mean difference) / LVEDD change from baseline, placebo-corrected (LS mean difference) / LVEDV change from baseline, placebo-corrected (LS mean difference) / LVEF change from baseline, placebo-corrected (LS mean difference) / LVESD change from baseline, placebo-corrected (LS mean difference) / LVESV change from baseline, placebo-corrected (LS mean difference) / LVFS change from baseline, placebo-corrected (LS mean difference) / LVGLS change from baseline, placebo-corrected (LS mean difference) / LVSV change from baseline, placebo-corrected (LS mean difference) / SET change from baseline, placebo-corrected (LS mean difference) / e′ lateral change from baseline, placebo-corrected (LS mean difference): pooled SAD Cohorts 1 and 2
Experimental: (§1) PD assessment was done by transthoracic echocardiography as described in Example 1 above. TTE evaluations of LVSV (derived from LVOT-VTI), LVEF, LVFS, SET, and other parameters were PD assessments at predetermined time points. The patients were on bed rest for 10 minutes before the TTEs were obtained. In Part 2 (MAD), TTEs were usually obtained before the morning close and/or at 7 hours postclose (i.e., close to the anticipated peak effect based on the PK profile from the healthy volunteer studies).
For both Cohorts 1 and 2, the pharmacodynamic effects of Compound I on echocardiographic markers of cardiac structure and function were analyzed by Compound I plasma concentration groups: <2000 ng/mL (low concentration group) and >2000 ng/mL (high concentration group) (Table 12).

[2] = test system: patients with stable HFrEF; assay: HFrEF study Part 2 (MAD Cohorts A-D): TTE pharmacodynamics by plasma concentration group; type: in vivo, human; settings: MAD cohorts
Experimental: as §1
The pharmacodynamic effects of Compound I on echocardiographic markers of cardiac structure and function were analyzed by Compound I plasma concentration groups: <2000 ng/mL (lower concentration group), 2000-3500 ng/mL (medium concentration group) and ≥3500 ng/mL (higher concentration group) (Table 16) and with PK-PD scatterplots (FIGS. 9A-9C). The medium concentration group corresponds to steady-state plasma concentrations achieved with 50 mg BID (Table 17). A total of 526 echocardiograms were performed from which the PK-PD analysis was derived.

[3] = high plasma concentration group (≥2000 ng/mL)
[4] = plasma concentration group 2000-<3500 ng/mL (n = 26), LS mean difference vs placebo
[5] = plasma concentration group <2000 ng/mL (n = 30), LS mean difference vs placebo

Cn1cc(S(=O)(=O)[C@@](C)(F)C2CCN(C(=O)Nc3ccon3)CC2)c(C(F)F)n1 [Compound I, (R)-4-(1-((3-(difluoromethyl)-1-methyl-1H-pyrazol-4-yl)sulfonyl)-1-fluoroethyl)-N-(isoxazol-3-yl)piperidine-1-carboxamide]
SET prolongation in one patient ([1]; 350 mg, 1.5 and 3 h postdose): ~63 ms | Mean SET prolongation for all patients ([1]; 350 mg, 3 to 9 hours postdose): 16.2 ms | SET prolongation in one patient ([1]; 350 mg, 6 and 9 hours postdose): < 35 ms | increase in SET ([1]; SAD cohorts): < 50 ms | relative increases from baseline in cardiac contractility (SV, LVEF, FS) ([1]; SAD cohorts): approximately 10% | LV ejection fraction, mean (SE) increase from baseline [1, 3]: 4.4% | LV global longitudinal strain, mean (SE) decrease [1, 3]: −2.1% | A wave peak change from baseline, placebo-corrected (LS mean difference) ([1]; plasma <2000 ng/mL): -3.2 cm/s | E wave peak change from baseline, placebo-corrected (LS mean difference) ([1]; plasma <2000 ng/mL): -1.1 cm/s | E/A ratio change from baseline, placebo-corrected (LS mean difference) ([1]; plasma <2000 ng/mL): 0.09 | E/e′ lateral change from baseline, placebo-corrected (LS mean difference) ([1]; plasma <2000 ng/mL): 0.6 | LVEDD change from baseline, placebo-corrected (LS mean difference) ([1]; plasma <2000 ng/mL): 0.2 mm | LVEDV change from baseline, placebo-corrected (LS mean difference) ([1]; plasma <2000 ng/mL): -2.5 mL | LVEF change from baseline, placebo-corrected (LS mean difference) ([1]; plasma <2000 ng/mL): 4.1% | LVESD change from baseline, placebo-corrected (LS mean difference) ([1]; plasma <2000 ng/mL): −1.3 mm | LVESV change from baseline, placebo-corrected (LS mean difference) ([1]; plasma <2000 ng/mL): -4.0 mL | LVFS change from baseline, placebo-corrected (LS mean difference) ([1]; plasma <2000 ng/mL): 3.1% | LVGLS change from baseline, placebo-corrected (LS mean difference) ([1]; plasma <2000 ng/mL): −1.1% | LVSV change from baseline, placebo-corrected (LS mean difference) ([1]; plasma <2000 ng/mL): 1.0 mL | SET change from baseline, placebo-corrected (LS mean difference) ([1]; plasma <2000 ng/mL): 8 ms | e′ lateral change from baseline, placebo-corrected (LS mean difference) ([1]; plasma <2000 ng/mL): -1 cm/s | A wave peak change from baseline, placebo-corrected (LS mean difference) ([1]; plasma ≥2000 ng/mL): -8.8 cm/s | E wave peak change from baseline, placebo-corrected (LS mean difference) ([1]; plasma ≥2000 ng/mL): -1.6 cm/s | E/A ratio change from baseline, placebo-corrected (LS mean difference) ([1]; plasma ≥2000 ng/mL): 0.08 | E/e′ lateral change from baseline, placebo-corrected (LS mean difference) ([1]; plasma ≥2000 ng/mL): 0.2 | LVEDD change from baseline, placebo-corrected (LS mean difference) ([1]; plasma ≥2000 ng/mL): −0.3 mm | LVEDV change from baseline, placebo-corrected (LS mean difference) ([1]; plasma ≥2000 ng/mL): -1.9 mL | LVEF change from baseline, placebo-corrected (LS mean difference) ([1]; plasma ≥2000 ng/mL): 4.4% | LVESD change from baseline, placebo-corrected (LS mean difference) ([1]; plasma ≥2000 ng/mL): −1.8 mm | LVESV change from baseline, placebo-corrected (LS mean difference) ([1]; plasma ≥2000 ng/mL): -3.5 mL | LVFS change from baseline, placebo-corrected (LS mean difference) ([1]; plasma ≥2000 ng/mL): 2.8% | LVGLS change from baseline, placebo-corrected (LS mean difference) ([1]; plasma ≥2000 ng/mL): −2.1% | LVSV change from baseline, placebo-corrected (LS mean difference) ([1]; plasma ≥2000 ng/mL): 9.0 mL | SET change from baseline, placebo-corrected (LS mean difference) ([1]; plasma ≥2000 ng/mL): 36 ms | e′ lateral change from baseline, placebo-corrected (LS mean difference) ([1]; plasma ≥2000 ng/mL): -1 cm/s | LVEF [2]: non-significant increase | A-wave duration, mean change from baseline (placebo-corrected) [2, 4]: 5.9 ms | A-wave peak, mean change from baseline (placebo-corrected) [2, 4]: 6.1** cm/s | DBP (supine), mean change from baseline (placebo-corrected) [2, 4]: −0.2 mmHg | E-wave peak, mean change from baseline (placebo-corrected) [2, 4]: -2.1 cm/s | E/A ratio, mean change from baseline (placebo-corrected) [2, 4]: −0.1** | E/e′ (lateral), mean change from baseline (placebo-corrected) [2, 4]: −0.7 | Heart rate (supine), mean change from baseline (placebo-corrected) [2, 4]: −2.0 bpm | IVRT, mean change from baseline (placebo-corrected) [2, 4]: 10.5 ms | LVEDD, mean change from baseline (placebo-corrected) [2, 4]: −0.9** mm | LVEDVi, mean change from baseline (placebo-corrected) [2, 4]: −1.1 mL/m^2 | LVEF, mean change from baseline (placebo-corrected) [2, 4]: 1.1% | LVESD, mean change from baseline (placebo-corrected) [2, 4]: −1.3** mm | LVESVi, mean change from baseline (placebo-corrected) [2, 4]: −1.3 mL/m^2 | LVFS, mean change from baseline (placebo-corrected) [2, 4]: 0.8% | LVGCS, mean change from baseline (placebo-corrected) [2, 4]: −2.1** % | LVGLS, mean change from baseline (placebo-corrected) [2, 4]: −0.9* % | LVSV, mean change from baseline (placebo-corrected) [2, 4]: 7.8** mL | SBP (supine), mean change from baseline (placebo-corrected) [2, 4]: −0.8 mmHg | SET, mean change from baseline (placebo-corrected) [2, 4]: 36** ms | Tei index, mean change from baseline (placebo-corrected) [2, 4]: −0.08** | e′ (lateral), mean change from baseline (placebo-corrected) [2, 4]: 0.1 | s′ (lateral), mean change from baseline (placebo-corrected) [2, 4]: 0.6** | A-wave duration, mean change from baseline (placebo-corrected) [2, 5]: 6.0 ms | A-wave peak, mean change from baseline (placebo-corrected) [2, 5]: 4.1* cm/s
